Calls of active or inactive are those of the source. The rule behind the calls is not given here.
Columns and labels:
[1] = test system: Brontispa longissima; test: Antifeedant activity against third-instar larvae of Brontispa longissima at 1 mg/ml after 24 hrs by leaf disk method; type: functional
[2] = test system: Brontispa longissima; test: Antifeedant activity against third-instar larvae of Brontispa longissima at 0.5 mg/ml after 24 hrs by leaf disk method; type: functional
[3] = test system: Brontispa longissima; test: Antifeedant activity against third-instar larvae of Brontispa longissima at 0.1 mg/ml after 24 hrs by leaf disk method; type: functional
[4] = test system: Brontispa longissima; test: Antifeedant activity against third-instar larvae of Brontispa longissima at 1 mg/ml after 48 hrs by leaf disk method; type: functional
[5] = test system: Brontispa longissima; test: Antifeedant activity against third-instar larvae of Brontispa longissima at 0.5 mg/ml after 48 hrs by leaf disk method; type: functional
[6] = test system: Brontispa longissima; test: Antifeedant activity against third-instar larvae of Brontispa longissima at 0.1 mg/ml after 48 hrs by leaf disk method; type: functional
[7] = test system: A2058; test: Cytotoxicity against human A2058 cells by MTT assay; type: functional, cell-based
[8] = test system: G-361; test: Cytotoxicity against human G361 cells by MTT assay; type: functional, cell-based
[9] = test system: DU-145; test: Cytotoxicity against human DU145 cells by MTT assay; type: functional, cell-based
[10] = test system: MDA-MB-468; test: Cytotoxicity against human MDA-MB-468 cells by MTT assay; type: functional, cell-based
[11] = test system: MDA-MB-435; test: Cytotoxicity against human MDA-MB-435 cells by MTT assay; type: functional, cell-based

Structure (SMILES) | Activity [1] [%] | Activity [2] [%] | Activity [3] [%] | Activity [4] [%] | Activity [5] [%] | Activity [6] [%] | Activity [7] | Activity [8] | Activity [9] | Activity [10] | Activity [11]
CC1=C(O)C(=O)C[C@@H]2[C@@]3(C)CC[C@](C)(O)C[C@@H]3CC[C@]12C [TAGALSIN P] | 48 | 18 | 14 | 22 | 6 | 2 | inactive | inactive | inactive | inactive | inactive
C=C1C(=O)C=C[C@@H]2[C@@]3(C)CC[C@](C)(O)C[C@@H]3CC[C@]12C [TAGALSIN Q] | 53 | 50 | 23 | 43 | 36 | 30 | inactive | inactive | inactive | inactive | inactive
C[C@]1(C(=O)O)CC[C@@]2(C)[C@@H](CC[C@]3(C)/C(=C/O)C(=O)CC[C@H]23)C1 [TAGALSIN R] | 40 | 37 | 18 | 28 | 30 | 7 | inactive | inactive | inactive | inactive | inactive
C[C@]1(C(=O)CO)CC[C@@]2(C)[C@@H](CC[C@]3(C)/C(=C/O)C(=O)CC[C@H]23)C1 [TAGALSIN S] | 51 | 45 | 25 | 47 | 37 | 36 | inactive | inactive | inactive | inactive | inactive
C[C@]1(C(O)CO)CC[C@@]2(C)[C@@H](CC[C@]3(C)/C(=C/O)C(=O)CC[C@H]23)C1 (stereo partly specified) [TAGALSIN T] | -5 | -11 | -32 | -20 | -31 | -48 | inactive | inactive | inactive | inactive | inactive
C=C1C(=O)CC[C@@H]2[C@@]3(C)CC[C@](C)(C(O)CO)C[C@@H]3CC[C@]12C (stereo partly specified) [TAGALSIN U] | 52 | 41 | 14 | 41 | 31 | 10 | inactive | inactive | inactive | inactive | inactive

From ChEMBL document CHEMBL1268864, “Dolabranes from the Chinese Mangrove, Ceriops tagal” (2010)
